# Measurements from ChEMBL document CHEMBL1201862, “PubChem BioAssay data set” (2004).
# The source made the active and inactive calls.
# What was measured:
# [1] = molecular target: T1, Low molecular weight phosphotyrosine protein phosphatase (Homo sapiens, UniProt P24666); type: functional; settings: read-out: IC50_Mean;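 further: Dose-response confirmation assay measuring inhibition of LMPTP enzyme activity by fluorescence intensity read-out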
# T1 sequence (P24666 whole entry): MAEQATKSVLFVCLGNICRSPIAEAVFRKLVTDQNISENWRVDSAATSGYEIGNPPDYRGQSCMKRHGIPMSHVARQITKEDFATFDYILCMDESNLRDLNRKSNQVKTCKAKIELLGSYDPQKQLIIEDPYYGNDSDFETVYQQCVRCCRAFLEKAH
# [2] = molecular target: T2, Mitochondrial peptide methionine sulfoxide reductase (Bos taurus, UniProt P54149); assay: Absorbance-based biochemical high throughput dose response assay for activators of Methionine sulfoxide reductase A (MsrA).; type: functional
# T2 sequence (P54149 whole entry): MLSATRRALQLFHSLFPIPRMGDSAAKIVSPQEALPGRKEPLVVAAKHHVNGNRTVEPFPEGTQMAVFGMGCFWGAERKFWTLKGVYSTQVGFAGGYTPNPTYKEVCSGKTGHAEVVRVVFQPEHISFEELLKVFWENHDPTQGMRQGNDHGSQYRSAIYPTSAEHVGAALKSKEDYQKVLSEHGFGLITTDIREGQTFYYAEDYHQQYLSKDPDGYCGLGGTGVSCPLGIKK
# [3] = system: Streptococcus; assay: Group A Streptococcus viability loss, dose response, counter-screen for streptokinase expression inhibitor project, luminescence, BacTiterGlo (AID 1915); type: functional, organism-based;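 further: potency for reduction of bacterial viability or growth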
# [4] = molecular target: T3, Methionyl-tRNA synthetase, putative (Trypanosoma brucei brucei, UniProt Q38C91); type: functional, Trypanosoma brucei brucei strain 927/4 GUTat10.1
# T3 sequence (Q38C91 whole entry): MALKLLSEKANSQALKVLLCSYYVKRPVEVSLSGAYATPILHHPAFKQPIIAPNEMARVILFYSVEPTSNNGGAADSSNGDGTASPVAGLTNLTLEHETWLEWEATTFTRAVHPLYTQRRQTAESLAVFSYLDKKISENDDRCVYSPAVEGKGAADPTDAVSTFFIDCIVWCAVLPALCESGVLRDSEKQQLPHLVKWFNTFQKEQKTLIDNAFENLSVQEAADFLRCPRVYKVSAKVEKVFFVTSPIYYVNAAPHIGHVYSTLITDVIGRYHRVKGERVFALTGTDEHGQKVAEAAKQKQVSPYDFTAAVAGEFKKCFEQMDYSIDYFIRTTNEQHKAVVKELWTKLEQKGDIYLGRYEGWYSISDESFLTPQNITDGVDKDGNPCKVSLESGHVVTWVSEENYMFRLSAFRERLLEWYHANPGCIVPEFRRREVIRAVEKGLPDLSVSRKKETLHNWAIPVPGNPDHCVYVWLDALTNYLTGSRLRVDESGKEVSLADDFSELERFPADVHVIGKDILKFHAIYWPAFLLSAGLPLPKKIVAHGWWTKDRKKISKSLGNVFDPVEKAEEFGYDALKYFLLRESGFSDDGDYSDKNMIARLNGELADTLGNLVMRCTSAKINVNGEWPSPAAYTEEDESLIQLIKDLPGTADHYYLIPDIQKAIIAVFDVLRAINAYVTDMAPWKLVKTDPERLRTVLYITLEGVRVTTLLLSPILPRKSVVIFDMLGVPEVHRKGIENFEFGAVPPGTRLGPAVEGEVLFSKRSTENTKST
# [5] = molecular target: T3, Methionyl-tRNA synthetase, putative; type: functional, Trypanosoma brucei brucei strain 927/4 GUTat10.1; remark: listed apart in the source
# [6] = HEp-2 cell cytotoxicity, dose response, cytotoxicity control for RSV inhibitor project, HTS (AID 2410); type: functional; settings: human respiratory syncytial virus
# [7] = molecular target: T4, Streptokinase A (Streptococcus pyogenes serotype M1, UniProt P10520); assay: S. pyogenes streptokinase expression inhibitors, potency, dose response, plasminogen activation absorbance, OD405 (AID 1914); type: functional, Streptococcus pyogenes M1 GAS;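 further: secreted streptokinase activity via plasminogen activation per viability signal from cell pellet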
# T4 sequence (P10520 whole entry): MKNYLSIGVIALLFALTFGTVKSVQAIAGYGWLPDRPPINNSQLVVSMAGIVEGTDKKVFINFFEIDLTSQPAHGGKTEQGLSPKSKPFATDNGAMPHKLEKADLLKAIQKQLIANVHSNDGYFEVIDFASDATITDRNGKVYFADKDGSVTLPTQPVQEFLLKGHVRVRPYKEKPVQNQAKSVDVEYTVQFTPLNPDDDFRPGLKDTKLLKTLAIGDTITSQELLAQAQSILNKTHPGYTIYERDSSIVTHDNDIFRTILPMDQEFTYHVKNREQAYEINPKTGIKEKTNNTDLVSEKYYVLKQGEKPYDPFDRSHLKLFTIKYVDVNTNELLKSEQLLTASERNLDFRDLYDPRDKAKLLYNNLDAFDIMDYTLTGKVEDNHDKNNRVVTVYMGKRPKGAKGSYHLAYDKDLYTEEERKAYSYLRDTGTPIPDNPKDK
# [8] = Counterscreen for inhibitors of Trypanosoma brucei methionyl tRNA synthetase (MetRS): Luminescence-based cell-based high throughput dose response assay to identify compounds that are cytotoxic to Jurkat human T lymphocyte cells.; type: functional
# [9] = system: Streptococcus sp. 'group A'; assay: growth inhibition of control SK(-) GAS strain, dose response, counter-screen for streptokinase expression inhibitor project, luminescence, kanamycin, BacTiterGlo, confirmation (AID 1900); type: functional, organism-based
# [10] = molecular target: T5, Type-1 angiotensin II receptor (Homo sapiens, UniProt P30556); assay: AT1 receptor antagonists, dose response, selectivity assay for APJ receptor antagonist project, cell-based, uHTS hits (AID 463214); type: functional;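 further: antagonist potency against angiotensin II stimulated AT1 response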
# T5 sequence (P30556 whole entry): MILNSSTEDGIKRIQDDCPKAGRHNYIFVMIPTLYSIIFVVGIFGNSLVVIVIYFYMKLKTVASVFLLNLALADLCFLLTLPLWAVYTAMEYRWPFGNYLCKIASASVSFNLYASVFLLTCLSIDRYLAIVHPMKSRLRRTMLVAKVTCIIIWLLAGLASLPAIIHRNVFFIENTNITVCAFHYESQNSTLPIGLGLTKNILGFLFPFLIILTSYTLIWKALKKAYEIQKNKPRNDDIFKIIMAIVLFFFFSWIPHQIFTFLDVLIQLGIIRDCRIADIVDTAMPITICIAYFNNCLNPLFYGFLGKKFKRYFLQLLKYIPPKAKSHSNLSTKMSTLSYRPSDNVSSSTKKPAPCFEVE
# [11] = molecular target: Beta-galactosidase (Escherichia coli, UniProt Q8VNN2); assay: PubChem AID 485352; type: functional
# [12] = ZM109 Env clade C HIV-1 fusion inhibitors, dose response, HeLa effector, CEM target cells, luciferase, cherry-pick (AID 652058); type: functional, cell-based
# [13] = inhibitors of clade B AD8 Env fusion, dose response, cell-based, cherry-pick (AID 652062); type: functional;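 further: luciferase signal from cell-cell fusion driven by HIV-1 clade B AD8 Env; potency is for inhibitors of fusion seen as a drop in luminescence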
# [14] = inhibitors of HIV Env-driven cell fusion, dose response, cherry-pick (AID 652057); type: functional, cell-based
# [15] = CEM21 lymphoblast cell cytotoxicity, dose response, cytotoxicity control for viral fusion inhibitor project, CellTiter-Glo luminescence, cherry-picked (AID 652042); type: functional, cell-based;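 further: potency for signal decrease meaning cytotoxicity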
# Chain of Beta-galactosidase (Q8VNN2 whole entry, the tested form may be a part): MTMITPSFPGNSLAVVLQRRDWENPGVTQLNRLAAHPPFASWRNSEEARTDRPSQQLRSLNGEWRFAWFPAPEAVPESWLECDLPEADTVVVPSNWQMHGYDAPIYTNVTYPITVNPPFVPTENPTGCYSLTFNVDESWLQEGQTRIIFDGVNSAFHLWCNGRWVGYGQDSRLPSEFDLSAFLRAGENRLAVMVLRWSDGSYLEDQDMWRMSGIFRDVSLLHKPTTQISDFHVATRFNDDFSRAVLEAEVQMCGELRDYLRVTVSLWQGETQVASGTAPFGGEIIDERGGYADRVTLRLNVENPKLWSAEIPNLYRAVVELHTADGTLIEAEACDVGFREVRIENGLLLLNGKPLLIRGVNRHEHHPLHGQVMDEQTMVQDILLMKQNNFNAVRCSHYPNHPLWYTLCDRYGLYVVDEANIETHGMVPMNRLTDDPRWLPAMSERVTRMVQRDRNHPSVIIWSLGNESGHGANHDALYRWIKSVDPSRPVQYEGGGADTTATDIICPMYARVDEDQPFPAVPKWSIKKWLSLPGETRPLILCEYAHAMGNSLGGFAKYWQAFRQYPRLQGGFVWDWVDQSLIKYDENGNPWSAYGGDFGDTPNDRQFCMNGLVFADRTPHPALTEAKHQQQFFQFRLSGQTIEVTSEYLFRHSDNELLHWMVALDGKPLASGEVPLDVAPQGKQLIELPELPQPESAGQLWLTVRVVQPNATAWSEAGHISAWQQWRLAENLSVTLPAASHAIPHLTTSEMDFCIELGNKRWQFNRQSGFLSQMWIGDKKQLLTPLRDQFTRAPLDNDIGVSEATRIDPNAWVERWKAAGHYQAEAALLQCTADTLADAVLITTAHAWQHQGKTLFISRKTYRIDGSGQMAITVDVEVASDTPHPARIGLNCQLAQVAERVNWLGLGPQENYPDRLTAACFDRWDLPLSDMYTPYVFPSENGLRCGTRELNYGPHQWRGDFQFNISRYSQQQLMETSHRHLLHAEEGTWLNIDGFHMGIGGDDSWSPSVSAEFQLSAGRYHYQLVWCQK
structure (smiles),measurement,setting,value
O=C(Nc1ccc(O)c(-c2nc3ccccc3s2)c1)c1cc(=O)c2ccccc2o1,IC50,[1],5.27 µM (active)
O=C(COC(=O)c1ccc([N+](=O)[O-])s1)NC(c1ccccc1)c1ccccc1,EC50,[2],32.8 µM (inactive)
O=C(NNC(=O)c1cc(-c2ccc(Cl)cc2Cl)nc2ccccc12)Nc1ccccc1,EC50,[3],8.55 µM (active)
same,IC50,[4],1.28 µM (active)
same,IC50,[5],2.74 µM (active)
same,CC50,[6],16.9 µM (active)
same,EC50,[7],20.4 µM (active)
same,IC50,[8],42.2 µM (inactive)
same,EC50,[9],5.3 µM (active)
O=C(O)c1cn(C2CC2)c2cc(N3CCN(S(=O)(=O)c4ccc5c(c4)OCCO5)CC3)c(F)cc2c1=O,IC50,[1],2.89 µM (active)
COc1ccc(N=C2C(=O)Nc3ccc(C)c(Br)c32)cc1,IC50,[10],3.94 µM (active)
same,EC50,[11],> 40 µM (inactive)
O=C(C[N+]1(CC#Cc2ccccc2)CCOCC1)c1ccc(Cl)cc1,IC50,[10],39.4 µM (not active)
same,EC50,[11],> 40 µM (inactive)
CO[C@H]1CN(C)C(=O)c2ccc(NC(=O)C3CC3)cc2OC[C@H](C)N(Cc2cc(F)ccc2F)C[C@@H]1C,AC50,[12],0.668 µM (active)
same,AC50,[13],1.5 µM (active)
same,AC50,[14],0.851 µM (active)
same,AC50,[15],59.9 µM (active)
